Where a name gives a salt, the structure may show the parent alone.
Columns and labels:
[1] = test system: duodenal epithelial mucosa tissue; assay: Test Example 1: atrophy of duodenal epithelial mucosa caused by 48-hour fasting, PAS-stained tissue sections; assay type: in vivo, rat; conditions: for Density of secretion granules / Intercellular space / Size of cell / Size of nucleus: fasting rats, 48 hours
Method: Six-week-old male Sprague-Dawley rats (purchased from Nippon Charles River) were employed in the test. Water and solid feed (CRF-1, product of Oriental Yeast) were freely ingested by the rats. […] The test was carried out for 48 hours. For the fasting groups, solid feed was removed in the morning of the day on which the test was initiated. During the 48 hours, solid feed, water, and an ethanolamine hydrochloride-containing aqueous solution were freely ingested by the rats in the solid feed ingestion group, the water ingestion fasting group, and the ethanolamine hydrochloride ingestion fasting group, respectively. The amount of water ingested during the 48 hours was measured, and the amount of ingested ethanolamine per rat was calculated on the basis of the amount of water (Table 2). […] The small intestine was excised from each rat, and a duodenal portion (size: 1 cm in length) was removed from a position 5 cm in the direction of the anus away from the pylorus. The removed portion was fixed in phosphate buffered formalin. After 24-hour fixation, the duodenal portion was embedded in paraffin using a conventional technique, to thereby prepare a tissue section. The thus-prepared tissue sample was subjected to PAS staining, and then observed.

[2] = Test Example 1: body weight of fasting rats; assay type: in vivo, rat; conditions: 48 hours; for Weight ± standard deviation, Final: fasting rats, free ingestion
Method: Six-week-old male Sprague-Dawley rats (purchased from Nippon Charles River) were employed in the test. Water and solid feed (CRF-1, product of Oriental Yeast) were freely ingested by the rats. […] The test was carried out for 48 hours. For the fasting groups, solid feed was removed in the morning of the day on which the test was initiated. During the 48 hours, solid feed, water, and an ethanolamine hydrochloride-containing aqueous solution were freely ingested by the rats in the solid feed ingestion group, the water ingestion fasting group, and the ethanolamine hydrochloride ingestion fasting group, respectively. The amount of water ingested during the 48 hours was measured, and the amount of ingested ethanolamine per rat was calculated on the basis of the amount of water (Table 2). For each group, the rats were weighed at the time of test initiation and the time of test completion, in order to obtain the average weight (Table 1). In the fasting groups, any changes in the weight of the rats that could be attributed to ethanolamine ingestion were not observed.

[3] = test system: primarily cultured liver cells; conditions: cited from earlier work
[4] = test system: villous epithelium of the duodenum; assay: Test Example 2: duodenal disorder induced by four-day fasting and intraperitoneal 5% dextrose, HE-stained tissue sections; assay type: in vivo, rat; conditions: 250 mg/5 mL/kg orally twice a day, first to third fasting day, versus control group
Method: Nine-week-old CD (SD) IGS male rats were employed in the test. The rats were kept in individual fasting cages, and the day after initiation of fasting was regarded as the first fasting day. Fasting (i.e., provision of no food and no water) was carried out for four days, and on the fourth day the rats were sacrificed through […]. A 5% dextrose solution was intraperitoneally administered to each rat in an amount of 10 mL on the basis of body weight (100 g) from the first fasting day to the third fasting day, to thereby induce disorders. The rats were divided into two groups: a control group and a drug administration group. To the rats of the control group, sterile water was orally administered in an amount of 0.5 mL per 100 g of body weight twice a day, at 10:00 AM and 4:00 PM. To the rats of the drug administration group, ethanolamine hydrochloride was administered in an amount of 250 mg/5 mL/kg twice a day, at 10:00 AM and 4:00 PM. The administration was carried out from the first fasting day to the third fasting day. On the fourth fasting day, the rats were sacrificed through cervical dislocation, and the stomach and the duodenum were removed from each rat. The inside of the intestinal tract was washed with saline. Subsequently, the pylorus was ligated and the tract was also ligated at a position 4 cm from the pylorus. […]

keratinocyte = conditions: cited from earlier work
[5] = 1 μM Etn in water (6 μg/kg/day)
[6] = 10 μM Etn in water (34 μg/kg/day)
[7] = 100 μM Etn in water (330 μg/kg/day)
[8] = 1000 μM Etn in water (4500 μg/kg/day)

## NCCO [ethanolamine hydrochloride]
[1]; 100 μM ingestion fasting group
  position of nuclei in cells: situated centrally
[1]; 100 μM ingestion fasting group, compared with solid feed ingestion group
  enlarged intercellular spaces and cell atrophy: not observed
[1]; 100 μM ingestion fasting group, compared with water and 1 or 10 μM fasting groups
  cell nuclei size: considerably enlarged
[1]; 100 μM ingestion fasting group, compared with water ingestion fasting group
  PAS staining of mucus-secreting granules in goblet cells: heavily stained
[1]; 1 or 10 μM ingestion fasting groups
  cell nuclei size: reduced in size
[1]; [5]
  Density of secretion granules: Low
  Intercellular space: Large
  Size of cell: Small
  Size of nucleus: Small
[1]; [6]
  Density of secretion granules: Low
  Intercellular space: Large
  Size of cell: Small
  Size of nucleus: Small
[1]; [7]
  Density of secretion granules: High
  Intercellular space: None
  Size of cell: Large
  Size of nucleus: Large
[1]; [8]
  Density of secretion granules: High
  Intercellular space: None
  Size of cell: Large
  Size of nucleus: Large
[1]; overall conclusion of Test Example 1
  prevention and treatment of atrophy of the small intestine caused by fasting: effective
[2]; 1 μM Etn in water
  Weight ± standard deviation, Final: 208.2 ± 3.1 g
[2]; 10 μM Etn in water
  Weight ± standard deviation, Final: 209.4 ± 7.4 g
[2]; 100 μM Etn in water
  Weight ± standard deviation, Final: 210.4 ± 3.9 g
[2]; 1000 μM Etn in water
  Weight ± standard deviation, Final: 213.1 ± 6.7 g

## NCCO [ethanolamine]
[3]; in the presence of a cell growth factor such as EGF, ethanolamine 10-100 μM
  proliferation of liver cells: synergistically promoted
[3]; only ethanolamine added, no cell growth factor
  proliferation-promoting activity: not observed
[4]
  cellular infiltration: only slight
  necrosis of the villous epithelium: remarkably suppressed
keratinocyte
  proliferation of epithelial cells: promote proliferation
[2]; fasting groups
  changes in the weight of the rats that could be attributed to ethanolamine ingestion: not observed

From patent publication US6337322B1, “Preventives and remedies for intestinal mucosal disorder” (Meiji Milk Products Co., Ltd., priority 1998, dated 2002)
